Patent US20080020413A1, “CRYSTALLINE VISFATIN AND METHODS THEREFOR” (Columbia University, priority 2006, published 2008)

Columns and labels:
tumor cells = settings: cited from earlier work
normal cells = settings: cited from earlier work
NAPRTases = settings: cited from earlier work
renal cell carcinoma = settings: mouse renal cell carcinoma model; cited from earlier work
NMPRTase = target: T1, NMPRTase (Homo sapiens, UniProt P43490); experiment: NMPRTase coupled-enzyme spectrometric assay; format: biochemical; settings: FIG. 5; Vmax=kcat([E]-[I])
T1 construct: Full-length human and murine NMPRTase (residues 1-491) was sub-cloned into the pET26b vector; made in house; host or cells: E. coli (pET26b vector)
T1 sequence (P43490 whole entry, the tested form may be a part): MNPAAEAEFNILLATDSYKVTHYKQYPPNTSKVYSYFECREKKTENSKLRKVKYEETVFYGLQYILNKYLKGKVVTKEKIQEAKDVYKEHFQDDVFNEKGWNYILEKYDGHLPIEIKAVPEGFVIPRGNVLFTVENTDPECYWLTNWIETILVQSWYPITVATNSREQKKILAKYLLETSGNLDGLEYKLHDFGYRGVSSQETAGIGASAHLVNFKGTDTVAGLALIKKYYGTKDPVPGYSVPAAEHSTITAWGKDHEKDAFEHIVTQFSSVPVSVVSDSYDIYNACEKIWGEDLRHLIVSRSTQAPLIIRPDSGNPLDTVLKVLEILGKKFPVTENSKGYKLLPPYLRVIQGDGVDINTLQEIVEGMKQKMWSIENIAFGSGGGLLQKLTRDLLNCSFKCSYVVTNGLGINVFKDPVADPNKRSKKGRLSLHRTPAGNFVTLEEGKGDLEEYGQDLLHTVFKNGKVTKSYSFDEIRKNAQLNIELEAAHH
Method: The catalytic activity of NMPRTase was determined using a coupled-enzyme spectrometric assay, following a published protocol (Revollo et al., 2004). Briefly, the NMN product of NMPRTase is converted to NAD^+ with the enzyme NMN/NAMN adenylyltransferase (NMNAT), and NAD^+ is then reduced to NADH by alcohol dehydrogenase (Sigma) using ethanol as the substrate. By monitoring the appearance of NADH at 340 nm, the activity of NMPRTase can be determined. […] The reaction buffer contains 50 mM Tris (pH 7.5), 0.4 mM PRPP, various concentrations of NM (or NA), 2.5 mM ATP, 12 mM MgCl2, 1.5% ethanol, 10 mM semicarbazide (to remove the acetaldehyde product of ethanol oxidation), 0.02% BSA, 10 mg/ml NMNAT, 30 mg/ml ADH, and 0.5 mM NMPRTase. The reactions are carried out at room temperature.

relationship between FK866 concentration and Vmax (NMPRTase): linear relationship
Compound: O=C(/C=C/c1cccnc1)NCCCCC1CCN(C(=O)c2ccccc2)CC1 [FK866, (E)-N-[4-(1-benzoylpiperidin-4-yl)butyl]-3-(pyridin-3-yl)acrylamide]
apoptosis (tumor cells): induces apoptosis
intracellular NAD+ levels (tumor cells): depletion of intracellular NAD^+ levels
toxicity to normal cells (normal cells): little toxicity
inhibition of NAPRTases (NAPRTases): does not inhibit
anti-angiogenic effects (renal cell carcinoma): potent anti-angiogenic effects
